Measurements from patent US8283009B2, “Use of a material based on a thermoplastic polymer having a high content of antioxidants for packaging dianhydrohexitols” (Roquette Freres, priority 2007, dated 2012).

Columns and labels:
[1] = Storage stability of isosorbide in sealed packaging sachets at 50° C., pH-metry; format: physicochemical
Excerpt: 50 g of isosorbide in solid form (flakes) are introduced into a sachet (25 cm×25 cm) constituted of the packaging material to be tested. The sachet is immediately sealed by welding using an impulse heat sealer (model SZ 380 sold by Joisten & Kettenbaum GmbH & Co, Bergisch Gladbach, Germany). The thus sealed sachet is in turn introduced into a second sachet made of aluminum comprising a polyethylene coating, sealed by welding using the same heat sealer in order to ensure leaktightness with respect to the external atmosphere. The samples thus packaged are placed in a ventilated oven, thermostatted at a temperature of 50° C. A control sample is enclosed in a glass flask and stored under the same conditions.
After a given period, the whole of the sample of isosorbide is extracted from the packagings and dissolved to 40% by weight of solids in osmosed water. […]

[2] = Analysis for peroxides on the packaged product after storage; format: physicochemical; conditions: packaged in accordance with the invention (PE + carbon black); 50° C.; after 4 months of storage

drop in pH after storage ([1]; packaged in accordance with the invention (PE + carbon black), after 4 months of storage): no drop in pH | pH of the solution ([1]; packaging PE + carbon black (according to the invention), storage 0 day, 40% by weight of solids in osmosed water): pH 7.6 | pH of the solution ([1]; packaging PE + carbon black (according to the invention), storage 1 month, 40% by weight in osmosed water): pH 7.3 | pH of the solution ([1]; packaging PE + carbon black (according to the invention), storage 1.5 month, 40% by weight in osmosed water): pH 7.4 | pH of the solution ([1]; packaging PE + carbon black (according to the invention), storage 2 months, 40% by weight in osmosed water): pH 7.5 | pH of the solution ([1]; packaging PE + carbon black (according to the invention), storage 2 weeks, 40% by weight in osmosed water): pH 7.2 | pH of the solution ([1]; packaging PE + carbon black (according to the invention), storage 2.5 months, 40% by weight in osmosed water): pH 7.5 | pH of the solution ([1]; packaging PE + carbon black (according to the invention), storage 3 months, 40% by weight in osmosed water): pH 7.6 | pH of the solution ([1]; packaging PE + carbon black (according to the invention), storage 4 months, 40% by weight in osmosed water): pH 7.7 | pH of the solution ([1]; packaging Sachet 1 (comp.) branched/linear polyethylene 50%/50%, storage 0 day, 40% by weight in osmosed water): pH 7.6 | pH of the solution ([1]; packaging Sachet 1 (comp.) branched/linear polyethylene 50%/50%, storage 1 month, 40% by weight in osmosed water): pH 7.4 | pH of the solution ([1]; packaging Sachet 1 (comp.) branched/linear polyethylene 50%/50%, storage 1.5 month, 40% by weight in osmosed water): pH 7.4 | pH of the solution ([1]; packaging Sachet 1 (comp.) branched/linear polyethylene 50%/50%, storage 2 weeks, 40% by weight in osmosed water): pH 7.5 | pH of the solution ([1]; packaging Sachet 2 (comp.) branched/linear polyethylene 70%/30%, storage 0 day, 40% by weight in osmosed water): pH 7.6 | pH of the solution ([1]; packaging Sachet 2 (comp.) branched/linear polyethylene 70%/30%, storage 2 weeks, 40% by weight in osmosed water): pH 7.5 | pH of the solution ([1]; packaging Sachet 3 (comp.) 100% of branched polyethylene, storage 0 day, 40% by weight in osmosed water): pH 7.6 | pH of the solution ([1]; packaging Sachet 4 (comp.) 100% of linear polyethylene, storage 0 day, 40% by weight in osmosed water): pH 7.6 | pH of the solution ([1]; packaging Sachet 4 (comp.) 100% of linear polyethylene, storage 2 weeks, 40% by weight in osmosed water): pH 7.2 | odor after storage ([1]; samples not packaged in accordance with the invention, glass 4 months, sachet 1 2 months, sachets 2 and 4 1 month, sachet 3 2 weeks): characteristic odor of formic acid | presence of peroxides (markers of oxidation phenomena, instability) [2]: did not show any presence of peroxides
Compound: O[C@@H]1CO[C@H]2[C@@H]1OC[C@@H]2O [isosorbide, 1,4:3,6-dianhydrosorbitol]
